Results from publication PMC5352051, “Identification of a novel Polo-like kinase 1 inhibitor that specifically blocks the functions of Polo-Box domain” (Oncotarget, 2016).

Legend:
[1] = target: T1, Plk2 PBD (Homo sapiens, UniProt Q9NYY3); experiment: Fluorescence polarization assay, Plk2 PBD / FITC-labeled phosphopeptide; assay type: binding
T1 construct: (326-603 aa), Plk2 (355-685 aa), and Plk3 (335-646 aa); GST (N); made in house; host or cells: E. coli Rosetta BL21(DE3)
T1 sequence (Q9NYY3 355-685): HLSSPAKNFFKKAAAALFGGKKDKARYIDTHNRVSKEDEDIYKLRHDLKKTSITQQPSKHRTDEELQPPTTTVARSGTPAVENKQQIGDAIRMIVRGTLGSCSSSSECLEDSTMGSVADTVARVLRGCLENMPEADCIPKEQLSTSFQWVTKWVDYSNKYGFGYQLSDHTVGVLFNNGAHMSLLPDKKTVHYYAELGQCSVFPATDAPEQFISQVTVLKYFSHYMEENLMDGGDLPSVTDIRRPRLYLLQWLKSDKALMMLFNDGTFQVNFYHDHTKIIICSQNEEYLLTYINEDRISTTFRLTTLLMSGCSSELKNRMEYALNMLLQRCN
Protocol: FP assay was performed as follow. Briefly, 30 μL Plk1 PBD proteins (400 nM) were incubated with 0.3 μL tested compounds (1 mg/mL) with shaking for 1 hr at room temperature (RT) prior to addition of 30 μL FITC-Poloboxtide (FITC-GPMQSpTPLNG-OH; λex/λem: 485/535 nm; 60 nM) in FP buffer (50 mM Tris-HCl, 10 mM NaCl, 1 mM EDTA pH8.0). Three wells containing 30 μL FITC-Poloboxtide (60 nM) and 30 μL Plk1 PBD (400 nM) were used as negative control (0% inhibition); three wells containing 60 μL FITC-Poloboxtide (30 nM) only were used as positive control (100% inhibition). Fluorescence polarization was analyzed after incubation of FITC-Poloboxtide for 15 min in a 384-well black opaque microplate (Cat# 6007270, PerkinElmer) using Envision Multilabel Reader (PerkinElmer) at 25°C. We calculated the percentage of inhibition for each sample as follows: Inhibition(%)=Negative−Sample/Negative−Positive×100%
We plotted the inhibition values and determined IC50 using GraphPad Prism5.0. Together with the FITC-labeled peptides used for Plk1 PBD as mentioned above, the following peptides were used for specificity assays, FITC-GPMQTSpTPKNG-OH (Plk2 PBD), FITC-GPLATSpTPKNG-OH (Plk3 PBD). As described above for the FP assay, proteins were used at the following final concentrations: Plk1 PBD, 200 nM; Plk2 PBD, 450 nM; Plk3 PBD, 600 nM. All FITC-labeled peptides were chemically synthesized (China Peptides Co., Ltd., Shanghai) and further verified by mass spectrometry, and the purity is more than 95.0%.

[2] = test system: HeLa cells; experiment: Apoptosis assay, Annexin V/PI dual-staining; assay type: cell-based, human; details: exponentially growing HeLa, various concentrations, 24 hrs, vs DMSO
Protocol: For apoptosis assay, HeLa cells were seeded at 3.0×10^4 cells/well into 6-well plates and incubated overnight. Then exponentially growing HeLa cells were treated with T521 at the indicated concentrations for 24 hrs and Annexin V/PI dual-staining was carried out using a commercial apoptosis assay kit (Beijing 4A Biotech. Co., Ltd.). DMSO-treated cells were taken as control.

SMILES: CCS(=O)(=O)c1oc(-c2ccc(F)cc2)nc1S(=O)(=O)c1ccccc1 [T521, 5-(ethylsulfonyl)-2-(4-fluorophenyl)-4-(phenylsulfonyl) oxazole]
- IC50 ([1]; FP assay, 1 hr preincubation at RT, read-out: Apparent IC50): > 500 µM
- inhibition of binding of PBD to FITC-labeled phosphopeptide ([1]; concentration as high as 500 μM): little inhibition
- cell population positive for Annexin V staining [2]: increase of cell population positive for Annexin V staining
